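A five-concentration, 48-hour dose response in 96-well plates underlies each endpoint, interpolated linearly between surrounding concentrations. TGI is the concentration that stops growth completely.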
How the values were obtained:
Experiment in all cases: NCI-60 cell line screen, 48 h
SK-MEL-5 melanoma = system: SK-MEL-5 melanoma
SNB-19 CNS = system: SNB-19 CNS
K-562 leukemia = system: K-562 leukemia
HL-60(TB) leukemia = system: HL-60(TB) leukemia
NCI/ADR-RES ovarian = system: NCI/ADR-RES ovarian
COLO 205 colon = system: COLO 205 colon
T-47D breast = system: T-47D breast
NCI-H460 lung = system: NCI-H460 lung
HCT-116 colon = system: HCT-116 colon
SN12C renal = system: SN12C renal
NCI-H226 lung = system: NCI-H226 lung
CAKI-1 renal = system: CAKI-1 renal
LOX IMVI melanoma = system: LOX IMVI melanoma
HCC-2998 colon = system: HCC-2998 colon
HOP-62 NSCLC = system: HOP-62 NSCLC
OVCAR-5 ovarian = system: OVCAR-5 ovarian
SK-MEL-28 melanoma = system: SK-MEL-28 melanoma

Compound | TGI (SK-MEL-5 melanoma) [µM] | TGI (SNB-19 CNS) [µM] | TGI (K-562 leukemia) [µM] | TGI (HL-60(TB) leukemia) [µM] | TGI (NCI/ADR-RES ovarian) [µM] | TGI (COLO 205 colon) [µM] | TGI (T-47D breast) [µM] | TGI (NCI-H460 lung) [µM] | TGI (HCT-116 colon) [µM] | TGI (SN12C renal) [µM] | TGI (NCI-H226 lung) [µM] | TGI (CAKI-1 renal) [µM] | TGI (LOX IMVI melanoma) [µM] | TGI (HCC-2998 colon) [µM] | TGI (HOP-62 NSCLC) [µM] | TGI (OVCAR-5 ovarian) [µM] | TGI (SK-MEL-28 melanoma) [µM]
CN(CCCNC(=O)c1nn(-c2ccc(Cl)cc2Cl)c2c1ccc1ccccc12)CCCNC(=O)c1nn(-c2ccc(Cl)cc2Cl)c2c1ccc1ccccc12 | 3.42 | 2.89 | 2.83 | 2.1 | 3.26 | 3.71 | 3.73 | 3.51 | 3.07 | 3.14 | 4.86 | 3.05 | 3.2 | 2.91 | 3.31 | 3.57 | –
COc1c(O)c2c(=O)cc(OC)c3c4c(OC)cc(=O)c5c(O)c(OC)c6c(c(c1C(C(C)=O)C6C(C)O)c23)c54 (stereo not drawn) | – | 0.413 | – | 0.415 | 1.58 | – | 1.64 | 0.688 | 3.06 | 2.94 | 3.65 | – | 0.32 | 1.06 | 0.632 | 1.28 | 3.3
O=[N+]([O-])/C(C(Cl)=C(Cl)Cl)=C(/Sc1ccccc1)N1CCCCC1 | > 88.1 | > 100 | > 100 | > 26.8 | > 100 | > 100 | > 100 | > 100 | > 100 | > 100 | > 100 | > 100 | > 100 | > 100 | > 100 | > 100 | > 100
COC(=O)c1ccccc1/C=C1\Cc2cc(C)c(C)cc2C1=O | > 100 | > 100 | > 100 | > 100 | > 100 | > 100 | > 100 | > 100 | > 100 | > 100 | > 100 | > 100 | > 100 | > 100 | 85.8 | > 100 | > 100
CCOC(=O)/C=C(/C(=O)OCC)n1ccc(=O)n(/C(=C/C(=O)OCC)C(=O)OCC)c1=O | 28.6 | 38.3 | 10.3 | 2.91 | 55.3 | 3.79 | 15.9 | 34.3 | 6.88 | 17.9 | 18.9 | 3.23 | 10.5 | 35 | 46.9 | 31.2 | 27.9
Cc1ccc(/C=C/C(=O)c2cc(CN(C)C)c(O)c(CN(C)C)c2)cc1 | 30.6 | – | 43.9 | 38.5 | 79.1 | 22.5 | > 100 | 26.1 | 39.7 | 44 | 59.5 | 50.3 | 21.2 | 46.2 | 37.5 | > 100 | 33.6
O=C(/C=C/c1ccc(O)c(O)c1O)OCCc1ccccc1 | > 100 | > 100 | 37.3 | 48.8 | 70.7 | 64.5 | > 100 | 42.7 | 26.3 | 34.4 | 97.9 | > 100 | 53.5 | > 100 | 55.5 | > 100 | > 100
O=C1NC(N2CCCC(CO)C2)=N/C1=C\c1ccc(Cl)cc1 (stereo not drawn) | > 100 | > 100 | > 100 | > 100 | > 100 | > 100 | > 100 | – | > 100 | > 100 | > 100 | > 100 | > 100 | > 100 | > 100 | > 100 | > 100
CC1(C)CC(=O)c2c(nc(SSc3nc4c(c(-c5ccccc5)c3C#N)C(=O)CC(C)(C)C4)c(C#N)c2-c2ccccc2)C1 | > 10 | > 10 | > 10 | > 10 | > 10 | > 10 | > 10 | > 10 | > 10 | > 10 | > 10 | > 10 | > 10 | > 10 | > 10 | > 10 | > 10
COc1cc(N(CCC#N)CCC#N)ccc1/C(N=Nc1ccccc1)=N/NC(=O)c1cc(Br)ccc1O | 42.3 | > 100 | 42.7 | 36.6 | > 100 | 29.8 | 57.8 | 51.1 | 44.1 | 96.6 | > 100 | 61.4 | 65.1 | 48 | 95.5 | > 100 | 87.6
COc1ccc(/C=C2\N=C(NN)N=C2Cl)cc1 | > 100 | > 100 | > 100 | > 100 | > 100 | > 100 | > 100 | – | > 100 | > 100 | > 100 | > 100 | > 100 | > 100 | > 100 | > 100 | > 100
CC#CCCN(CC#N)Cc1ccccc1 | > 100 | > 100 | > 100 | > 100 | > 100 | > 100 | > 100 | > 100 | > 100 | > 100 | > 100 | > 100 | > 100 | > 100 | > 100 | > 100 | > 100
COc1ccc([C@@]23OC[C@@H]4[C@@H](OC[C@@H]42)c2cc(OC)c(OC)cc23)cc1OC | > 100 | > 100 | > 100 | > 100 | > 100 | > 100 | > 100 | > 100 | > 100 | – | > 100 | > 100 | > 100 | > 100 | > 100 | > 100 | > 100
COc1ccc(C2SC(C)C(=O)N2c2nc(-c3nc(-c4ccc(Cl)cc4)cs3)cs2)cc1 (stereo not drawn) | > 100 | > 100 | > 100 | > 100 | > 100 | > 100 | > 100 | > 100 | > 100 | > 100 | > 100 | > 100 | > 100 | > 100 | > 100 | > 100 | –

Reference: PubChem BioAssay (NCI)
